In patent publication US9840509B2, “Heterocyclic compounds” (CADILA HEALTHCARE LIMITED, priority 2014, dated 2017):

Experiments:
CYP 3A4 = target: T1, CYP 3A4 (Homo sapiens, UniProt P08684); assay: CYP inhibition in human liver microsomes, 3A4; assay type: in vitro ADME; details: pH 7.4, @ 10 μM concn
T1 construct: from tissue; host or cells: human liver microsomes
How it was run: (§1)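 Test compounds at […] and 10 μM were incubated in duplicate with human liver microsomes, probe substrate and 1 mM NADPH in 100 mM phosphate buffer pH 7.4 at 37° C. Reactions were stopped with acetonitrile containing internal standard, and the marker-reaction metabolite was quantified by LC-MS/MS.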

CYP 2D6 = target: T2, CYP 2D6 (Homo sapiens, UniProt P10635); assay: CYP inhibition in human liver microsomes, 2D6; assay type: in vitro ADME; details: pH 7.4, @ 10 μM concn
T2 construct: from tissue; host or cells: human liver microsomes
T2 sequence (P10635 whole entry): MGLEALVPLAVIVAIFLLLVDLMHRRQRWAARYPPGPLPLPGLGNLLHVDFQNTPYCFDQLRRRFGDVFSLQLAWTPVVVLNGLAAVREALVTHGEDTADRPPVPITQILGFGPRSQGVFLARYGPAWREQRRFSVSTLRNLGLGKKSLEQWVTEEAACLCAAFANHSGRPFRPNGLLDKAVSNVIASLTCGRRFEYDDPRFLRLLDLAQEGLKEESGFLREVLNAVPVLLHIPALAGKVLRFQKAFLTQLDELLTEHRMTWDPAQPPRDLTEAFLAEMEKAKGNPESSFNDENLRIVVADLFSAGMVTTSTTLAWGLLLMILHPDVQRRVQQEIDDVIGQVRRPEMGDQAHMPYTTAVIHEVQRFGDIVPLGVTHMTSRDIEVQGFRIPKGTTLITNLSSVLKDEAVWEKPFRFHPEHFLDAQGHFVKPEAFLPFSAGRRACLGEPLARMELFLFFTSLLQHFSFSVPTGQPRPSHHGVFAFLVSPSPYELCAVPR
How it was run: as §1

CYP 2C9 = target: T3, CYP 2C9 (Homo sapiens, UniProt P11712); assay: CYP inhibition in human liver microsomes, 2C9; assay type: in vitro ADME; details: pH 7.4, @ 10 μM concn
T3 construct: from tissue; host or cells: human liver microsomes
T3 sequence (P11712 whole entry): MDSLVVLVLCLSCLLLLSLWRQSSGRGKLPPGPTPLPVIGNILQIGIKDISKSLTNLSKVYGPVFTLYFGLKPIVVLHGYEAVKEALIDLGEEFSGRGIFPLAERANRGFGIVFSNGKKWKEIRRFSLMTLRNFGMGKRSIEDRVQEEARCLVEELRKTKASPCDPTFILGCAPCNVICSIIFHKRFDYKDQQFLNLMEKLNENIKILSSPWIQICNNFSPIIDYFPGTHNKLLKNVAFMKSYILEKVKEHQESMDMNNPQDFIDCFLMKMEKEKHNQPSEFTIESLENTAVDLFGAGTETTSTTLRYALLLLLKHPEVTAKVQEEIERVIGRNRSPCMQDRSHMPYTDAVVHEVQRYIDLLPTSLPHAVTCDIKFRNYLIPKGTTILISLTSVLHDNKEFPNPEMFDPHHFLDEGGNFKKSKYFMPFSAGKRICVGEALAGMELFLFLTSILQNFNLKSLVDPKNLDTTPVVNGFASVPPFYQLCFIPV
How it was run: as §1

CYP 2C8 = target: T4, CYP 2C8 (Homo sapiens, UniProt P10632); assay: CYP inhibition in human liver microsomes, 2C8; assay type: in vitro ADME; details: pH 7.4, @ 10 μM concn
T4 construct: from tissue; host or cells: human liver microsomes
T4 sequence (P10632 1-490): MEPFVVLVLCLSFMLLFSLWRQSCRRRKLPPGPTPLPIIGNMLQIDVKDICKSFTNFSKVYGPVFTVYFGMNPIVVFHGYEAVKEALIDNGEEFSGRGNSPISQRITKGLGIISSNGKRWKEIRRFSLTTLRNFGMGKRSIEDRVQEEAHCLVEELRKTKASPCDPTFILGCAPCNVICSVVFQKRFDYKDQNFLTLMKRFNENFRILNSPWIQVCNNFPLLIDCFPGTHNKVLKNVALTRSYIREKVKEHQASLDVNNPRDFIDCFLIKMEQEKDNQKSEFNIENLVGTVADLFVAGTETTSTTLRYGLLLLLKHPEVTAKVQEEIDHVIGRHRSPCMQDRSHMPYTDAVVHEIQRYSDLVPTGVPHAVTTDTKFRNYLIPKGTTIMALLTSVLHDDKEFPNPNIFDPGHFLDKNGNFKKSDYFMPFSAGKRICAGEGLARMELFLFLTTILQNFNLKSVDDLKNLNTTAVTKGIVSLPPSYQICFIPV
How it was run: as §1

CYP 1A2 = target: T5, CYP 1A2 (Homo sapiens, UniProt P05177); assay: CYP inhibition in human liver microsomes, 1A2; assay type: in vitro ADME; details: pH 7.4, @ 10 μM concn
T5 construct: from tissue; host or cells: human liver microsomes
T5 sequence (P05177 1-516): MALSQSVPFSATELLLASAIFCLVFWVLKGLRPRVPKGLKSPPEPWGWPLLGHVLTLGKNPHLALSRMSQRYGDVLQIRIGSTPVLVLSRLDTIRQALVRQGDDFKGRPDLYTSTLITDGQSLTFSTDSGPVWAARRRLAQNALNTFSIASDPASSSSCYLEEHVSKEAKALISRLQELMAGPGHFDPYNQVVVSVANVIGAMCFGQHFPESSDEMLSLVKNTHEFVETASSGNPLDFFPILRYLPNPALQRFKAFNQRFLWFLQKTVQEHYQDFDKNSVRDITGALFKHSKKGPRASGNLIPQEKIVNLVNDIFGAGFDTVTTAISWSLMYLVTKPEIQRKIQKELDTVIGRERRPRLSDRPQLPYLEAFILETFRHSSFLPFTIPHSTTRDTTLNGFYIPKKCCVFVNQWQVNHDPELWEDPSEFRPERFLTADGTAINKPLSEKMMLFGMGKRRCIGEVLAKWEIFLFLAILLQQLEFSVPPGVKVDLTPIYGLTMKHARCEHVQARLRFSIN
How it was run: as §1

CYP 2C19 = target: T6, CYP 2C19 (Homo sapiens, UniProt P33261); assay: CYP inhibition in human liver microsomes, 2C19; assay type: in vitro ADME; details: pH 7.4, @ 10 μM concn
T6 construct: from tissue; host or cells: human liver microsomes
T6 sequence (P33261 whole entry): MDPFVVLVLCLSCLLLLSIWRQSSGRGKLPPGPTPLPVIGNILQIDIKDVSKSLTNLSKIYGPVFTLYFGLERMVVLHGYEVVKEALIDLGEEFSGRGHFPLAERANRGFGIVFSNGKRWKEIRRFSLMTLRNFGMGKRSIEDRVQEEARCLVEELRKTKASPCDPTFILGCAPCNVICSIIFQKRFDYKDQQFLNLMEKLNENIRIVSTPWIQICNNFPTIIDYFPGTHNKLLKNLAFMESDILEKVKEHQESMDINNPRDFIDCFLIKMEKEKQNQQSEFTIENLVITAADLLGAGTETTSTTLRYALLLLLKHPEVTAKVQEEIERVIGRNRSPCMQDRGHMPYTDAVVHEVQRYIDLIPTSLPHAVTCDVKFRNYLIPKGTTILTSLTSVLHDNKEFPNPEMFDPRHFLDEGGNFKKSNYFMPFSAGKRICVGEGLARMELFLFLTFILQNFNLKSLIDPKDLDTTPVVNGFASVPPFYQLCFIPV
How it was run: as §1

CIA Arthritis Model = assay: Collagen induced arthritis (CIA) study in mice; assay type: in vivo; details: Dose: 10 mpk, po, Mean ± SD, n = 8
Description: All the animal experiments were carried out in female rats and mice, bred in-house. Animals were housed in groups of 6 animals per cage, for a week, in order to habituate them to vivarium conditions (25±4° C., 60-65% relative humidity, 12: 12 h light: dark cycle, with lights on at 7.30 am). All the animal experiments were carried out according to the internationally valid guidelines following approval by the ‘Zydus Research Center animal ethical committee’.
Protocol for Collagen Induced Arthritis (CIA) Study in Mice
CIA is a frequently used animal model of human RA (Courtenay, J. S., Dallman, M. J., Dayan, A. D., Martin, A. and Mosedale, B., Nature, 1980, 283, 666-668; Bevaart, L., Vervoordeldonk, M. J., Tak, P. P., Methods Mol. Biol., 2010, 602, 181-192). Following 7 days acclimation, mice were randomly assigned to groups according body weight. Mice were immunized subcutaneously in the tail using bovine type II collagen mix in complete Freund's adjuvant (CFA). Twenty-one days after the first immunization, mice were given booster dose of collagen in incomplete Freund's adjuvant (IFA). Mice were monitored every other day after the booster dose for the development of arthritis. Mice were recruited for the study once clinical signs were visible. Eight animals were assigned each of three groups [vehicle, positive control and test compounds] and treatment was continued for four weeks and percentage inhibition in clinical score is recorded as per graded score. Body weights of the animals were also recorded 3 times a week as a measure of treatment related side effect, paw thickness measured twice a week and blood serum are collected at termination for cytokines profile.

T1 sequence (P08684 whole entry): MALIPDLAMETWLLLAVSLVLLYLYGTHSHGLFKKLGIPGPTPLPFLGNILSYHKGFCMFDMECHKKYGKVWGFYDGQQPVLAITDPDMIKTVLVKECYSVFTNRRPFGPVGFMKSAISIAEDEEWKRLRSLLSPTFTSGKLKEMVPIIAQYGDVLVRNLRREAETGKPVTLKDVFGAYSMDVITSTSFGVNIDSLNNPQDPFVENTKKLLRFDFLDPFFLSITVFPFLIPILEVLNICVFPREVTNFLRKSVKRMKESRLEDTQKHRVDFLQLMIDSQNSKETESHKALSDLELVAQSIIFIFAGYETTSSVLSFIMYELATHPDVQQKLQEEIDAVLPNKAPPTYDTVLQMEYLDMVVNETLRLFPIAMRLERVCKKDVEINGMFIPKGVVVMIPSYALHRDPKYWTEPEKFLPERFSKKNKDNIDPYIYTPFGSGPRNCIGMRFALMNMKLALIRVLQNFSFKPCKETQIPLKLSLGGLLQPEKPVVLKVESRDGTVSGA

| inhibition at 10 μM (CYP 3A4) [%] | inhibition at 10 μM (CYP 2D6) [%] | inhibition at 10 μM (CYP 2C9) [%] | inhibition at 10 μM (CYP 2C8) [%] | inhibition at 10 μM (CYP 1A2) [%] | inhibition at 10 μM (CYP 2C19) [%] | SMILES | % inhibition of clinical score, Day-28, in CIA Arthritis Model (CIA Arthritis Model) [%] |
| --- | --- | --- | --- | --- | --- | --- | --- |
| < 50 | < 50 | < 50 | < 50 | < 50 | < 50 | C=CC(=O)N1CC2CC(n3nc(-c4ccc(C(=O)N(C)c5cc(C)ccn5)cc4)c4c(N)ncnc43)CC2C1 (centres unmarked) [Compound 54, 4-(1-(2-acryloyloctahydrocyclopenta[c]pyrrol-5-yl)-4-amino-1H-pyrazolo[3,4-d]pyrimidin-3-yl)-N-methyl-N-(4-methylpyridin-2-yl)benzamide] | 98 ± 4.5 |
| < 50 | < 50 | < 50 | < 50 | < 50 | < 50 | C=CC(=O)N1CC2CC(n3nc(-c4ccc(C(=O)Nc5cc(C)ccn5)cn4)c4c(N)ncnc43)CC2C1 (centres unmarked) [Compound 42, 6-(1-(2-acryloyloctahydrocyclopenta[c]pyrrol-5-yl)-4-amino-1H-pyrazolo[3,4-d]pyrimidin-3-yl)-N-(4-methylpyridin-2-yl)nicotinamide] | 100 ± 4.2 |

Further lines, the molecule ahead of its results:

| SMILES | inhibition at 10 μM (CYP 3A4) [%] | inhibition at 10 μM (CYP 2D6) [%] | inhibition at 10 μM (CYP 2C9) [%] | inhibition at 10 μM (CYP 2C8) [%] | inhibition at 10 μM (CYP 1A2) [%] | inhibition at 10 μM (CYP 2C19) [%] | % inhibition of clinical score, Day-28, in CIA Arthritis Model (CIA Arthritis Model) [%] |
| --- | --- | --- | --- | --- | --- | --- | --- |
| C=CC(=O)N1CC2CC(n3nc(-c4ccc(NC(=O)c5ccccn5)cc4)c4c(N)ncnc43)CC2C1 (centres unmarked) [Compound 32, N-(4-(1-(2-acryloyloctahydrocyclopenta[c]pyrrol-5-yl)-4-amino-1H-pyrazolo[3,4-d]pyrimidin-3-yl)phenyl)picolinamide] | > 50 | < 50 | < 50 | < 50 | < 50 | < 50 | 100 ± 3.9 |
| C=CC(=O)N1CC2CC(N3C(=O)N(c4ccc(Oc5ccccc5)cc4)C4C(N)=NC=NC43)CC2C1 (centres unmarked) [Compound 25, 9-(2-acryloyloctahydrocyclopenta[c]pyrrol-5-yl)-6-amino-7-(4-phenoxyphenyl)-5,7-dihydro-4H-purin-8(9H)-one] | < 50 | < 50 | < 50 | < 50 | < 50 | < 50 | 90.1 ± 6.3 |
| C=CC(=O)N1CC2CC(n3nc(-c4ccc(-c5nnc(-c6cnccn6)s5)cc4)c4c(N)ncnc43)CC2C1 (centres unmarked) [Compound 46, 1-(5-(4-amino-3-(4-(5-(pyrazin-2-yl)-1,3,4-thiadiazol-2-yl)phenyl)-1H-pyrazolo[3,4-d]pyrimidin-1-yl)hexahydrocyclopenta[c]pyrrol-2(1H)-yl)prop-2-en-1-one] | < 50 | < 50 | < 50 | < 50 | < 50 | < 50 | 88 ± 7.1 |
